# Earlier results, collected in patent publication US20130143829A1, “Topical Combination Formulations of Macrocyclic Lactones with Synthetic Pyrethroids” (priority 2011, published 2013).
# Settings: in vivo
substance,measurement,value
eprinomectin,Milk to plasma partition ratio,~0.2
